Measurements published in paper PMC8235719, “New RAD51 Inhibitors to Target Homologous Recombination in Human Cells” (Genes, 2021).
pIC50: −log10 of the molar value. “Also recorded” adds a separate entry of the source. Like-named read-outs stand apart in the source and are kept apart here.

Tests used:
Assay type in all cases: cell-based, human
MDA-MB-231 cells [1] = experiment: Cell viability of MDA-MB-231 after 1 h MMS treatment; details: MDA-MB-231, 100 µM MMS 1 h
Protocol: For experiments in which MDA-MB-231 cells were treated with MMS, cells were seeded in 24-well plates at 3.5 × 10^4 cells/well. The next day, cells were treated with 100 µM MMS (Sigma, St. Louis, MO, USA) for 1 h in the presence of increasing concentrations of olaparib and 2 µM B02-iso where indicated. Then, cells were washed twice with PBS, which was followed by incubation with olaparib at indicated concentrations and 2 µM B02-iso where indicated for 4 days. After completion of the treatments, cells were harvested, and their viability was determined by flow cytometry using Guava ViaCount reagent (Luminex; Austin, TX, USA). Data were analyzed using the Guava ViaCount software (Millipore; Burlington, VT, USA).

[2] = system: RAD51 expression in U-2 OS IndDR-GFP cells; experiment: RAD51 expression level by Western blotting; details: 4 µM, 24 h
Protocol: Protein concentrations in the nuclear and whole-cell extracts were determined by Bradford assay (Bio-Rad), and the equivalent protein amounts were subjected to electrophoresis in 12% SDS-Polyacrylamide gels (29:1) in Tris-Glycine-SDS buffer. After gel-electrophoresis, proteins were transferred to PVDF membranes (Amersham, Piscataway, NJ, USA) using Mini Trans-Blot Cell (BioRad, Hercules, CA, USA) at 80V for 40 min. PVDF membranes were washed in TBS and blocked with a blocking buffer (5% nonfat dry milk in TBS-T) for 1 h. Anti-RAD51 rabbit polyclonal antibody (1:1000, GeneTex, GTX100469), anti-FKBP12 monoclonal mouse antibody (1:100, BD Biosciences; Franklin lakes, NJ, USA, 610808) for the detection of ddSceGR, and anti-nucleolin mouse monoclonal antibody (1:1000, Santa Cruz Biotechnology; Dallas, Texas, sc-17826) were applied overnight in a blocking buffer at 4 °C. […] Signal was detected with SuperSignal West Pico Plus chemiluminescent substrate (Thermo Scientific; Waltham, […], USA) with a G:B0X6 imaging system (Syngene; Bangalore, India). Band intensities were quantified with the GeneTools software (Syngene; Bangalore, India).
IndDR-GFP cells. […] 10 µg of protein lysates were loaded and analyzed by SDS-PAGE. […]

MDA-MB-231 cells [3] = experiment: Cell viability assay (Guava ViaCount flow cytometry), MDA-MB-231; details: for pIC50: read-out: IC50 of cell viability
Protocol: For all cell viability experiments, except experiments involving MMS treatment, cells were seeded into the media containing indicated concentrations of tested compounds or corresponding amounts of DMSO in controls. The concentration of DMSO in media was 0.1%. MDA-MB-231 cells were seeded into 24-well plates at 3.5 × 10^4 cells/well for cells for a 4-day treatment or at 5000 cells/well for a 10-day treatment. MCF 10A cells were seeded into 24-well plates at 1.5 × 10^4 cells/well for a 4-day treatment or at 500 cells/well for a 10-day treatment. In the case of 10-day treatments, the media with compounds were renewed twice on the 4th and the 7th days of treatments. After completion of the treatments, cells were harvested, and their viability was determined by flow cytometry with Guava ViaCount reagent (Luminex; Austin, TX USA). Data were analyzed using the Guava ViaCount software (Millipore; Burlington, VT, USA). The IC50 values were calculated using the GraphPad Prism 5 software (San Diego, CA, USA).

MCF 10A cells = experiment: Cell cycle analysis (propidium iodide flow cytometry); details: 24 h
Protocol: Exponentially growing MDA-MB-231 and MCF 10A cells were seeded into 6-well plates at a density of 1.5 × 10^5 cells/well in the presence of indicated concentrations of B02-iso or 0.01% DMSO (for control cells). After 24 h of incubation, cells were harvested, placed on ice, and washed once with cold PBS. Cells were counted with an automated cell counter (Bio-Rad; Hercules, CA, USA), and 1 × 10^5 cells from each sample were taken for further analysis. Cells were resuspended in PBS, and then cold, absolute ethanol was added dropwise to a cell suspension to reach a final concentration of 70%, followed by incubation on ice for 1 h. Cells were washed in PBS, resuspended in staining buffer (50 µg/mL propidium iodide, 100 µg/mL RNase A, 0.1% Triton X-100 in PBS) and incubated for 15 min in the dark at 37 °C. Cells were analyzed for DNA content by flow cytometry using the Guava easyCyte system (Millipore; Burlington, VT, USA) with the InCyte software (Millipore; Burlington, VT, USA).

O=c1nc(/C=C/c2cccnc2)n(Cc2ccccc2)c2ccccc12 [B02-iso]
Sensitization of cells to B02-iso by MMS in the absence of olaparib (MDA-MB-231 cells [1]; 4-day treatment): did not sensitize | Effect on cell killing by MMS plus olaparib (MDA-MB-231 cells [1]; olaparib, 2 µM B02-iso, 4 days): further significantly increased | RAD51 expression level [2]: does not change the RAD51 expression level; also recorded: did not change RAD51 expression level | inhibition at 2 µM (MDA-MB-231 cells [3]; Homo sapiens, 96 h, MDA-MB-231, 2 µM, 4-day treatment, read-out: Growth inhibition): < 5% | pIC50 (MDA-MB-231 cells [3]; Homo sapiens, MDA-MB-231, 96 h, MDA-MB-231, 4-day treatment): 5.39 | pIC50 (MDA-MB-231 cells [3]; Homo sapiens, MDA-MB-231, 240 h, MDA-MB-231, 10-day treatment, compound alone): 5.59 | Effect on cell viability, compound alone (MDA-MB-231 cells [3]; MDA-MB-231, 1.8 µM, 10-day treatment): does not impair cell viability | Fold increase in efficiency of olaparib killing (MDA-MB-231 cells [3]; MDA-MB-231, 10-day treatment, 1.8 µM B02-iso): 2.4 fold | Cell cycle effect (MCF 10A cells): prominent G1 arrest
